The text below walks through data of patent US11458123B2 (Arvinas, Inc., priority 2016, dated 2022).

SMILES strings stand for the structures.

One experiment concerns tau protein. The experiment in a line: Tau protein in vitro degradation assay (Western blot, Tau-13 antibody). In kind it is cell-based, human. The conditions noted are these: SK-N-SH cells; 72 hours of incubation; tested at 300 nM, 100 nM, 33 nM and 11 nM; Western blot, Tau-13 antibody. The gist of the method: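 Tau degradation read by Tau-13 Western blot (detects all human tau forms) of SDS-PAGE-resolved lysates from SK-N-SH cells. Cells were plated at least 18 h before 72 h exposure to PROTACs at either 1000/300/100 nM or 300/100/33/11 nM.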
A general note: Immunoblotting shows a protein as a band on a membrane.
With `Cn1c2ccncc2c2ccc(-c3ccc(O[C@H]4C[C@H](OCC5(COCCCOC6CN(c7ccc8c(c7)C(=O)N(C7CCC(=O)NC7=O)C8=O)C6)COC5)C4)nc3)cc21` (some centres unmarked) [Compound 169, 2-(2,6-dioxopiperidin-3-yl)-5-(3-(3-((3-(((1r,3r)-3-((5-(5-methyl-5H-pyrido[4,3-b]indol-7-yl)pyridin-2-yl)oxy)cyclobutoxy)methyl)oxetan-3-yl)methoxy)propoxy)azetidin-1-yl)isoindoline-1,3-dione], the “Degradation activity* (highest amount of degradation observed at any dosage; tau protein remaining)” value was “A (≤50% tau protein remaining after 72 hours of incubation with the test compound)”.

With `Cn1c2ccncc2c2ccc(-c3ccc(O[C@H]4C[C@@H](Oc5ccc(C#CCOC6CN(c7ccc8c(c7)C(=O)N(C7CCC(=O)NC7=O)C8=O)C6)nc5)C4)nc3)cc21` (some centres unmarked) [Compound 159, 2-(2,6-dioxopiperidin-3-yl)-5-(3-((3-(5-((1 s,3 s)-3-((5-(5-methyl-5H-pyrido[4,3-b]indol-7-yl)pyridin-2-yl)oxy)cyclobutoxy)pyridin-2-yl)prop-2-yn-1-yl)oxy)azetidin-1-yl)isoindoline-1,3-dione], the “Degradation activity* (highest amount of degradation observed at any dosage; tau protein remaining)” value was “C (>80% tau protein remaining after 72 hours of incubation with the test compound)”.

As to `O=C1CCC(N2C(=O)c3ccc(OCC#Cc4ccc(O[C@H]5C[C@H](Oc6ccc(-c7ccc8c(c7)[nH]c7ccncc78)cn6)C5)cn4)cc3C2=O)C(=O)N1` (some centres unmarked) [Compound 73, 5-((3-(5-((1r,3r)-3-((5-(5H-pyrido[4,3-b]indol-7-yl)pyridin-2-yl)oxy)cyclobutoxy)pyridin-2-yl)prop-2-yn-1-yl)oxy)-2-(2,6-dioxopiperidin-3-yl)isoindoline-1,3-dione], the “Degradation activity* (highest amount of degradation observed at any dosage; tau protein remaining)” value is “A (≤50% tau protein remaining after 72 hours of incubation with the test compound)”.

Consider `Cn1c2ccncc2c2ccc(-c3ccc(OC4CN(CCCCCOCCCCCOc5ccc6c(c5)C(=O)N(C5CCC(=O)NC5=O)C6=O)C4)nc3)cc21` (centres unmarked) [Compound 106, 2-(2,6-dioxopiperidin-3-yl)-5-((5-((5-(3-((5-(5-methyl-5H-pyrido[4,3-b]indol-7-yl)pyridin-2-yl)oxy)azetidin-1-yl)pentyl)oxy)pentyl)oxy)isoindoline-1,3-dione], for which the “Degradation activity* (highest amount of degradation observed at any dosage; tau protein remaining)” value was “B (≤80% and >50% tau protein remaining after 72 hours of incubation with the test compound)”.

Consider `Cn1c2ccncc2c2ccc(-c3ccc(O[C@H]4C[C@H](OCCCOCCCOC5CN(c6ccc7c(c6)CN(C6CCC(=O)NC6=O)C7=O)C5)C4)nc3)cc21` (some centres unmarked) [Compound 177, 3-(5-(3-(3-(3-((1r,3r)-3-((5-(5-methyl-5H-pyrido[4,3-b]indol-7-yl)pyridin-2-yl)oxy)cyclobutoxy)propoxy)propoxy)azetidin-1-yl)-1-oxoisoindolin-2-yl)piperidine-2,6-dione], for which the “Degradation activity (tau protein remaining; highest amount of degradation observed at any dosage)” value is “A (≤50% tau protein remaining after 72 hours of incubation with the test compound)”.

`Cn1c2ccncc2c2ccc(-c3ccc(O[C@H]4C[C@H](Oc5ccc(C#CCCCCOc6ccc7c(c6)C(=O)N(C6CCC(=O)NC6=O)C7=O)nc5)C4)nc3)cc21` (some centres unmarked) [Compound 97, 2-(2,6-dioxopiperidin-3-yl)-5-((6-(5-((1r,3r)-3-((5-(5-methyl-5H-pyrido[4,3-b]indol-7-yl)pyridin-2-yl)oxy)cyclobutoxy)pyridin-2-yl)hex-5-yn-1-yl)oxy)isoindoline-1,3-dione]: the “Degradation activity* (highest amount of degradation observed at any dosage; tau protein remaining)” value was “B (≤80% and >50% tau protein remaining after 72 hours of incubation with the test compound)”.

On to `Cn1c2ccncc2c2ccc(-c3ccc(O[C@H]4C[C@H](OCCOCCOC5CN(c6ccc7c(c6)C(=O)N(C6CCC(=O)NC6=O)C7=O)C5)C4)nc3)cc21` (some centres unmarked) [Compound 163, 2-(2,6-dioxopiperidin-3-yl)-5-(3-(2-(2-((1r,3r)-3-((5-(5-methyl-5H-pyrido[4,3-b]indol-7-yl)pyridin-2-yl)oxy)cyclobutoxy)ethoxy)ethoxy)azetidin-1-yl)isoindoline-1,3-dione], for which the “Degradation activity* (highest amount of degradation observed at any dosage; tau protein remaining)” value is “C (>80% tau protein remaining after 72 hours of incubation with the test compound)”.

As for `Cn1c2ccncc2c2ccc(-c3ccc(OCCCCCOCCCCCO[C@H]4C[C@H](Oc5ccc6c(c5)C(=O)N(C5CCC(=O)NC5=O)C6=O)C4)nc3)cc21` (some centres unmarked) [Compound 85, 2-(2,6-dioxopiperidin-3-yl)-5-((1r,3r)-3-((5-((5-((5-(5-methyl-5H-pyrido[4,3-b]indol-7-yl)pyridin-2-yl)oxy)pentyl)oxy)pentyl)oxy)cyclobutoxy)isoindoline-1,3-dione], the “Degradation activity* (highest amount of degradation observed at any dosage; tau protein remaining)” value is listed as “A (≤50% tau protein remaining after 72 hours of incubation with the test compound)”.

As to `O=C1CCC(N2C(=O)c3ccc(OCCCCCOC4CCN(C(=O)[C@H]5C[C@@H](Oc6ccc(-c7ccc8c(c7)[nH]c7ccncc78)cn6)C5)CC4)cc3C2=O)C(=O)N1` (some centres unmarked) [Compound 166, 5-((5-((1-((1r,3r)-3-((5-(5H-pyrido[4,3-b]indol-7-yl)pyridin-2-yl)oxy)cyclobutane-1-carbonyl)piperidin-4-yl)oxy)pentyl)oxy)-2-(2,6-dioxopiperidin-3-yl)isoindoline-1,3-dione], the “Degradation activity* (highest amount of degradation observed at any dosage; tau protein remaining)” value is reported as “C (>80% tau protein remaining after 72 hours of incubation with the test compound)”.

Consider `Cn1c2ccncc2c2ccc(N3CCN(CCCOCCOCCOCCOCCOc4ccc5c(c4)C(=O)N(C4CCC(=O)NC4=O)C5=O)CC3)cc21` (centres unmarked) [Compound 210, 2-(2,6-dioxopiperidin-3-yl)-5-((15-(4-(5-methyl-5H-pyrido[4,3-b]indol-7-yl)piperazin-1-yl)-3,6,9,12-tetraoxapentadecyl)oxy)isoindoline-1,3-dione], for which the “Degradation activity (tau protein remaining; highest amount of degradation observed at any dosage)” value is “C (>80% tau protein remaining after 72 hours of incubation with the test compound)”.

For the compound `Cn1c2ccncc2c2ccc(-c3ccc(O[C@H]4C[C@H](Oc5ccc(CCCCCCOc6ccc7c(c6)C(=O)N(C6CCC(=O)NC6=O)C7=O)cn5)C4)nc3)cc21` (some centres unmarked) [Compound 110, 2-(2,6-dioxopiperidin-3-yl)-5-((6-(6-((1r,3r)-3-((5-(5-methyl-5H-pyrido[4,3-b]indol-7-yl)pyridin-2-yl)oxy)cyclobutoxy)pyridin-3-yl)hexyl)oxy)isoindoline-1,3-dione], the “Degradation activity* (highest amount of degradation observed at any dosage; tau protein remaining)” value is recorded as “C (>80% tau protein remaining after 72 hours of incubation with the test compound)”.

Turning to `O=C1CCC(N2C(=O)c3ccc(OCCOCCOCCOCCOCCOc4ccc(-c5ccc6c7cnccc7n(C(F)F)c6c5)cn4)cc3C2=O)C(=O)N1` (centres unmarked) [Compound 138, 5-((14-((5-(5-(difluoromethyl)-5H-pyrido[4,3-b]indol-7-yl)pyridin-2-yl)oxy)-3,6,9,12-tetraoxatetradecyl)oxy)-2-(2,6-dioxopiperidin-3-yl)isoindoline-1,3-dione], the “Degradation activity* (highest amount of degradation observed at any dosage; tau protein remaining)” value is “B (≤80% and >50% tau protein remaining after 72 hours of incubation with the test compound)”.

The experiment is the same for the next values; noted with them: SK-N-SH cells; 72 hours of incubation; tested at 1000 nM, 300 nM and 100 nM.
For the compound `Cc1ncsc1-c1ccc(CNC(=O)[C@@H]2C[C@@H](O)CN2C(=O)[C@@H](NC(=O)COCCOCCOCCCOc2ccc3nc(-c4ccc(N(C)C)cc4)ccc3c2)C(C)(C)C)cc1` [Compound 8, (2S,4R)-1-((S)-2-(tert-butyl)-15-((2-(4-(dimethylamino)phenyl)quinolin-6-yl)oxy)-4-oxo-6,9,12-trioxa-3-azapentadecanoyl)-4-hydroxy-N-(4-(4-methylthiazol-5-yl)benzyl)pyrrolidine-2-carboxamide], the “Activity* (highest amount of degradation observed at any dosage, as tau protein remaining)” value is “C (>80% tau protein remaining after 72 hours of incubation with the test compound)”.

Regarding `O=C1CCC(N2C(=O)c3cccc(NCCOCCOCCOCCOCC(=O)N4CCN(c5ccn6c(n5)nc5ccccc56)CC4)c3C2=O)C(=O)N1` (centres unmarked) [Compound 42, 4-((14-(4-(benzo[4,5]imidazo[1,2-a]pyrimidin-2-yl)piperazin-1-yl)-14-oxo-3,6,9,12-tetraoxatetradecyl)amino)-2-(2,6-dioxopiperidin-3-yl)isoindoline-1,3-dione], the “Activity* (highest amount of degradation observed at any dosage, as tau protein remaining)” value is on record as “C (>80% tau protein remaining after 72 hours of incubation with the test compound)”.

`Cc1ncsc1-c1ccc([C@H](C)NC(=O)[C@@H]2C[C@@H](O)CN2C(=O)[C@@H](NC(=O)COCCOCCOCCOc2ccc3nc(-c4ccc(N(C)C)cc4)ccc3c2)C(C)(C)C)cc1` [Compound 30, (2S,4R)-1-((S)-2-tert-butyl-14-(2-(4-(dimethylamino)phenyl)quinolin-6-yloxy)-4-oxo-6,9,12-trioxa-3-azatetradecane)-4-hydroxy-N—((S)-1-(4-(4-methylthiazol-5-yl)phenyl)ethyl)pyrrolidine-2-carboxamide]: the “Activity* (highest amount of degradation observed at any dosage, as tau protein remaining)” value is reported as “C (>80% tau protein remaining after 72 hours of incubation with the test compound)”.

For the compound `Cc1ncsc1-c1ccc(CNC(=O)[C@@H]2C[C@@H](O)CN2C(=O)[C@@H](NC(=O)COCCOCCOCCN2CCN(c3ccn4c(n3)nc3ccccc34)CC2)C(C)(C)C)cc1` [Compound 7, (2S,4R)-1-((S)-14-(4-(benzo[4,5]imidazo[1,2-a]pyrimidin-2-yl)piperazin-1-yl)-2-(tert-butyl)-4-oxo-6,9,12-trioxa-3-azatetradecanoyl)-4-hydroxy-N-(4-(4-methylthiazol-5-yl)benzyl)pyrrolidine-2-carboxamide], the “Activity* (highest amount of degradation observed at any dosage, as tau protein remaining)” value is on record as “C (>80% tau protein remaining after 72 hours of incubation with the test compound)”.

Take `O=C1CCC(N2C(=O)c3cccc(NCCOCCOCCOCCOCCN4CCN(c5ccn6c(n5)nc5ccccc56)CC4)c3C2=O)C(=O)N1` (centres unmarked) [Compound 26, 4-((14-(4-(benzo[4,5]imidazo[1,2-a]pyrimidin-2-yl)piperazin-1-yl)-3,6,9,12-tetraoxatetradecyl)amino)-2-(2,6-dioxopiperidin-3-yl)isoindoline-1,3-dione]: the “Activity* (highest amount of degradation observed at any dosage, as tau protein remaining)” value was “C (>80% tau protein remaining after 72 hours of incubation with the test compound)”.
